Test results published in PubChem BioAssay (NCI).
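Cells were grown in 96-well plates and exposed to each compound for 48 hours at five concentrations; endpoints were interpolated linearly between bracketing concentrations, or set to the highest concentration if not reached. The concentration for full growth arrest is given as TGI.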

How the values were obtained:
Assay in all cases: NCI-60 cell line screen, 48 h
U251 CNS = test system: U251 CNS
A549 NSCLC = test system: A549 NSCLC
NCI-H23 lung = test system: NCI-H23 lung
DLD-1 colon = test system: DLD-1 colon
M19-MEL melanoma = test system: M19-MEL melanoma
LXFL 529 NSCLC = test system: LXFL 529 NSCLC
SR leukemia = test system: SR leukemia
RXF 393 renal = test system: RXF 393 renal
KM12 colon = test system: KM12 colon
MALME-3M melanoma = test system: MALME-3M melanoma
UO-31 renal = test system: UO-31 renal
SNB-19 CNS = test system: SNB-19 CNS
SK-MEL-2 melanoma = test system: SK-MEL-2 melanoma
HL-60(TB) leukemia = test system: HL-60(TB) leukemia
KM20L2 colon = test system: KM20L2 colon
DMS 273 small cell lung = test system: DMS 273 small cell lung
HOP-62 NSCLC = test system: HOP-62 NSCLC
HOP-18 NSCLC = test system: HOP-18 NSCLC
EKVX NSCLC = test system: EKVX NSCLC
SNB-78 CNS = test system: SNB-78 CNS
UACC-257 melanoma = test system: UACC-257 melanoma
SK-MEL-28 melanoma = test system: SK-MEL-28 melanoma
MOLT-4 leukemia = test system: MOLT-4 leukemia
HCT-15 colon = test system: HCT-15 colon
SK-OV-3 ovarian = test system: SK-OV-3 ovarian
NCI-H522 lung = test system: NCI-H522 lung
786-0 renal = test system: 786-0 renal
A498 renal = test system: A498 renal
RPMI-8226 leukemia = test system: RPMI-8226 leukemia
HOP-92 NSCLC = test system: HOP-92 NSCLC
COLO 205 colon = test system: COLO 205 colon
NCI-H460 lung = test system: NCI-H460 lung
HT29 colon = test system: HT29 colon
SNB-75 CNS = test system: SNB-75 CNS
HCT-116 colon = test system: HCT-116 colon
SK-MEL-5 melanoma = test system: SK-MEL-5 melanoma
OVCAR-8 ovarian = test system: OVCAR-8 ovarian
ACHN renal = test system: ACHN renal
SW-620 colon = test system: SW-620 colon
SF-539 CNS = test system: SF-539 CNS
K-562 leukemia = test system: K-562 leukemia
TK-10 renal = test system: TK-10 renal
CAKI-1 renal = test system: CAKI-1 renal
SF-268 CNS = test system: SF-268 CNS
IGROV1 ovarian = test system: IGROV1 ovarian
XF 498 CNS = test system: XF 498 CNS
NCI-H226 lung = test system: NCI-H226 lung
HCC-2998 colon = test system: HCC-2998 colon
M14 melanoma = test system: M14 melanoma
OVCAR-3 ovarian = test system: OVCAR-3 ovarian
DMS 114 small cell lung = test system: DMS 114 small cell lung
SN12C renal = test system: SN12C renal
UACC-62 melanoma = test system: UACC-62 melanoma
OVCAR-5 ovarian = test system: OVCAR-5 ovarian
SF-295 CNS = test system: SF-295 CNS
LOX IMVI melanoma = test system: LOX IMVI melanoma
CCRF-CEM leukemia = test system: CCRF-CEM leukemia
OVCAR-4 ovarian = test system: OVCAR-4 ovarian

O=c1c(-c2cccc3ccccc23)c(-c2cccc3ccccc23)c1=O was tested, and the TGI (U251 CNS) was 18.4 µM, the TGI (A549 NSCLC) was 12 µM and the TGI (NCI-H23 lung) was 9.27 µM. It also gave a TGI (DLD-1 colon) greater than 100 µM, a TGI (M19-MEL melanoma) greater than 100 µM and a TGI (LXFL 529 NSCLC) greater than 85 µM. For the same molecule, the TGI (SR leukemia) was greater than 32 µM, the TGI (RXF 393 renal) was 45.7 µM and the TGI (KM12 colon) was 21.1 µM. It also gave a TGI (MALME-3M melanoma) greater than 86.2 µM, a TGI (UO-31 renal) greater than 100 µM and a TGI (SNB-19 CNS) of 61 µM. For the same molecule, the TGI (SK-MEL-2 melanoma) was greater than 78.2 µM, the TGI (HL-60(TB) leukemia) was 4.87 µM and the TGI (KM20L2 colon) was 1.59 µM. It also gave a TGI (DMS 273 small cell lung) of 13.2 µM, a TGI (HOP-62 NSCLC) of 49.1 µM and a TGI (HOP-18 NSCLC) greater than 100 µM. It also gave a TGI (EKVX NSCLC) greater than 39.4 µM, a TGI (SNB-78 CNS) greater than 100 µM and a TGI (UACC-257 melanoma) greater than 39.6 µM. It also gave a TGI (SK-MEL-28 melanoma) greater than 100 µM, a TGI (MOLT-4 leukemia) greater than 45.2 µM and a TGI (HCT-15 colon) greater than 52.9 µM. For the same molecule, the TGI (SK-OV-3 ovarian) was 26.1 µM, the TGI (NCI-H522 lung) was 3.12 µM and the TGI (786-0 renal) was 12.7 µM. The TGI (A498 renal) was 18.1 µM, the TGI (RPMI-8226 leukemia) was greater than 100 µM and the TGI (HOP-92 NSCLC) was 39.4 µM. For the same molecule, the TGI (COLO 205 colon) was 1.64 µM, the TGI (NCI-H460 lung) was 4 µM and the TGI (HT29 colon) was 3.03 µM. It also gave a TGI (SNB-75 CNS) of 4.07 µM, a TGI (HCT-116 colon) of 37.6 µM and a TGI (SK-MEL-5 melanoma) of 40 µM. The TGI (OVCAR-8 ovarian) was 13.6 µM, the TGI (ACHN renal) was greater than 100 µM and the TGI (SW-620 colon) was 58.9 µM. For the same molecule, the TGI (SF-539 CNS) was 4.75 µM, the TGI (K-562 leukemia) was greater than 33.3 µM and the TGI (TK-10 renal) was greater than 100 µM. The TGI (CAKI-1 renal) was greater than 100 µM, the TGI (SF-268 CNS) was greater than 53.7 µM and the TGI (IGROV1 ovarian) was greater than 100 µM. It also gave a TGI (XF 498 CNS) of 99 µM, a TGI (NCI-H226 lung) of 6.51 µM and a TGI (HCC-2998 colon) of 4.95 µM. It also gave a TGI (M14 melanoma) of 8.51 µM, a TGI (OVCAR-3 ovarian) of 11.6 µM and a TGI (DMS 114 small cell lung) of 13.2 µM. The TGI (SN12C renal) was greater than 100 µM, the TGI (UACC-62 melanoma) was greater than 100 µM and the TGI (OVCAR-5 ovarian) was greater than 84.9 µM. It also gave a TGI (SF-295 CNS) of 2.82 µM, a TGI (LOX IMVI melanoma) of 27.3 µM and a TGI (CCRF-CEM leukemia) greater than 50 µM.
Work on CS(=O)(=O)N(CCC#N)c1ccc(/C=C2\N=C(c3ccccc3Cl)OC2=O)cc1 yielded a TGI (U251 CNS) greater than 100 µM, a TGI (A549 NSCLC) greater than 100 µM and a TGI (NCI-H23 lung) greater than 100 µM. For the same molecule, the TGI (DLD-1 colon) was greater than 100 µM, the TGI (M19-MEL melanoma) was greater than 100 µM and the TGI (LXFL 529 NSCLC) was greater than 100 µM. The TGI (RXF 393 renal) was greater than 100 µM, the TGI (KM12 colon) was greater than 100 µM and the TGI (MALME-3M melanoma) was greater than 100 µM. The TGI (UO-31 renal) was greater than 100 µM, the TGI (SNB-19 CNS) was greater than 100 µM and the TGI (SK-MEL-2 melanoma) was greater than 100 µM. It also gave a TGI (HL-60(TB) leukemia) greater than 100 µM, a TGI (KM20L2 colon) greater than 100 µM and a TGI (DMS 273 small cell lung) greater than 100 µM. The TGI (HOP-62 NSCLC) was greater than 100 µM, the TGI (EKVX NSCLC) was greater than 100 µM and the TGI (SNB-78 CNS) was greater than 100 µM. For the same molecule, the TGI (UACC-257 melanoma) was greater than 100 µM, the TGI (SK-MEL-28 melanoma) was greater than 100 µM and the TGI (MOLT-4 leukemia) was greater than 100 µM. It also gave a TGI (HCT-15 colon) greater than 100 µM, a TGI (SK-OV-3 ovarian) greater than 100 µM and a TGI (NCI-H522 lung) greater than 100 µM. The TGI (786-0 renal) was greater than 100 µM, the TGI (A498 renal) was greater than 100 µM and the TGI (RPMI-8226 leukemia) was greater than 100 µM. The TGI (COLO 205 colon) was greater than 100 µM, the TGI (NCI-H460 lung) was greater than 100 µM and the TGI (HT29 colon) was greater than 100 µM. It also gave a TGI (SNB-75 CNS) greater than 100 µM, a TGI (HCT-116 colon) greater than 100 µM and a TGI (SK-MEL-5 melanoma) greater than 100 µM. It also gave a TGI (OVCAR-8 ovarian) greater than 100 µM, a TGI (ACHN renal) greater than 100 µM and a TGI (SW-620 colon) greater than 100 µM. The TGI (SF-539 CNS) was greater than 100 µM, the TGI (K-562 leukemia) was greater than 100 µM and the TGI (TK-10 renal) was greater than 100 µM. The TGI (CAKI-1 renal) was greater than 100 µM, the TGI (SF-268 CNS) was greater than 100 µM and the TGI (IGROV1 ovarian) was greater than 100 µM. It also gave a TGI (XF 498 CNS) greater than 100 µM, a TGI (NCI-H226 lung) greater than 100 µM and a TGI (HCC-2998 colon) greater than 100 µM. For the same molecule, the TGI (M14 melanoma) was greater than 100 µM, the TGI (OVCAR-3 ovarian) was greater than 100 µM and the TGI (DMS 114 small cell lung) was greater than 100 µM. The TGI (SN12C renal) was greater than 100 µM, the TGI (UACC-62 melanoma) was greater than 100 µM and the TGI (OVCAR-5 ovarian) was greater than 100 µM. The TGI (SF-295 CNS) was greater than 100 µM, the TGI (LOX IMVI melanoma) was greater than 100 µM and the TGI (CCRF-CEM leukemia) was greater than 100 µM.
NCCNCCNCc1c2ccccc2c(CNCCNCCN)c2ccccc12 was tested, and the TGI (U251 CNS) was greater than 100 µM, the TGI (A549 NSCLC) was greater than 100 µM and the TGI (NCI-H23 lung) was greater than 100 µM. It also gave a TGI (DLD-1 colon) greater than 100 µM, a TGI (M19-MEL melanoma) greater than 100 µM and a TGI (LXFL 529 NSCLC) greater than 100 µM. It also gave a TGI (SR leukemia) greater than 100 µM, a TGI (RXF 393 renal) greater than 100 µM and a TGI (KM12 colon) greater than 100 µM. The TGI (MALME-3M melanoma) was greater than 100 µM, the TGI (UO-31 renal) was greater than 100 µM and the TGI (SK-MEL-2 melanoma) was greater than 100 µM. The TGI (HL-60(TB) leukemia) was greater than 100 µM, the TGI (KM20L2 colon) was greater than 100 µM and the TGI (HOP-62 NSCLC) was greater than 100 µM. For the same molecule, the TGI (HOP-18 NSCLC) was greater than 100 µM, the TGI (EKVX NSCLC) was greater than 100 µM and the TGI (SNB-78 CNS) was greater than 100 µM. The TGI (UACC-257 melanoma) was greater than 100 µM, the TGI (SK-MEL-28 melanoma) was greater than 100 µM and the TGI (MOLT-4 leukemia) was greater than 100 µM. For the same molecule, the TGI (HCT-15 colon) was greater than 100 µM, the TGI (SK-OV-3 ovarian) was greater than 100 µM and the TGI (786-0 renal) was greater than 100 µM. It also gave a TGI (RPMI-8226 leukemia) greater than 100 µM, a TGI (HOP-92 NSCLC) of 84.1 µM and a TGI (COLO 205 colon) greater than 100 µM. It also gave a TGI (NCI-H460 lung) greater than 100 µM, a TGI (HT29 colon) greater than 100 µM and a TGI (HCT-116 colon) greater than 100 µM. For the same molecule, the TGI (SK-MEL-5 melanoma) was greater than 100 µM, the TGI (OVCAR-8 ovarian) was greater than 100 µM and the TGI (ACHN renal) was greater than 100 µM. It also gave a TGI (SW-620 colon) greater than 100 µM, a TGI (SF-539 CNS) greater than 100 µM and a TGI (K-562 leukemia) greater than 100 µM. For the same molecule, the TGI (TK-10 renal) was greater than 100 µM, the TGI (CAKI-1 renal) was greater than 100 µM and the TGI (SF-268 CNS) was greater than 100 µM. For the same molecule, the TGI (IGROV1 ovarian) was greater than 100 µM, the TGI (XF 498 CNS) was greater than 100 µM and the TGI (NCI-H226 lung) was greater than 100 µM. For the same molecule, the TGI (HCC-2998 colon) was greater than 100 µM, the TGI (M14 melanoma) was greater than 100 µM and the TGI (OVCAR-3 ovarian) was greater than 100 µM. It also gave a TGI (DMS 114 small cell lung) greater than 100 µM, a TGI (SN12C renal) greater than 100 µM and a TGI (UACC-62 melanoma) greater than 100 µM. The TGI (OVCAR-5 ovarian) was greater than 100 µM, the TGI (SF-295 CNS) was greater than 100 µM and the TGI (OVCAR-4 ovarian) was greater than 100 µM. The TGI (LOX IMVI melanoma) was greater than 100 µM and the TGI (CCRF-CEM leukemia) was greater than 100 µM.
